# In paper PMC3669129, “Fast, Non-Competitive and Reversible Inhibition of NMDA-Activated Currents by 2-BFI Confers Neuroprotection” (PLoS ONE, 2013):
# Read-outs that look alike come from different tables or passages of the source.
# Columns and labels:
# [1] = system: NMDA receptor-mediated [Ca2+]i influx; test: Ratiometric Fura-2 measurement of NMDA-evoked [Ca2+]i in cortical neurons; type: cell-based, mouse; conditions: for reversibility of block of NMDA receptor-mediated [Ca2+]i influx on removal of inhibitor: MK801 10 µM, 2-BFI 200 µM, memantine 10 µM, NMDA 100 µM, wash with PSS, n = 20 cells per treatment
# Method: Ratiometric measurement of [Ca^2+]i was performed using Fura-2 AM [25]. Briefly, mouse cortical neurons at 7 days-in-vitro on glass coverslips were loaded with 5 µM Fura-2-AM (Molecular Probes, Eugene, CA) plus 0.02% pluronic (Life Technologies, INC, Burlington, ON, Canada) for 30 min at 37°C. After rinsing with PSS Mg^2+ free buffer containing 2 mM HEPES (pH 7.2), 140 mM NaCl, 5 mM KCl, 2.3 mM CaCl2, and 10 mM glucose, and stabilized in the same buffer for 5 min, Fura-2 intensities were measured using a Northern Eclipse Digital Ratio Image System (EMPIX, Mississauga, ON, Canada) with an Axiovert 200 camera and light source (Zeiss, Thornwood, NY). Fura-2 fluorescence was measured at 510 nm emission with 340/380 nm dual excitation selected by a DG-5 system (Sutter Instrument Company, Novato, CA). [Ca^2+]i concentration was represented by the ratio of florescence intensity between the two excitation wavelengths of R340/380 of Fura-2 after correction for background. R340/380 for 10 cells in one field of each coverslip was averaged. The basal level of [Ca^2+]i was recorded for 20 sec, followed by the application of inhibitors. […] [Ca^2+]i was recorded for 60–100 sec. After washing with PSS buffer for 300 sec, PSS buffer containing 45 mM KCl was added to neurons to record changes in [Ca^2+]i for 60 sec to show viability of neurons. All measurements were repeated for at least 3 times. The data was analyzed using Microsoft Excel and presented as the mean of three experiments.
# [2] = system: spectrin breakdown product (SBP); type: cell-based, rat; conditions: 2 h treatment with NMDA; Western blot
# cortical neurons = test: Neuroprotection against NMDA excitotoxicity (nuclear staining, Alamar Blue viability); type: cell-based, rat; conditions: for number of condensed nuclei (NMDA-induced neuronal death): nuclear staining of cortical neurons treated with NMDA
# Method: (§1) Primary cortical neurons were prepared from embryonic E18 Sprague-Dawley rats and cultured in neurobasal medium supplemented with B27 [24]. Briefly, cortices were explanted and cleaned free of meninges. The cortices were placed in D-Hanks’ solution and digested at 37°C with 0.05% trypsin-EDTA for 6 min. They were subsequently resuspended in DMEM medium supplemented with 20% fetal calf serum and 1% penicillin/streptomycin to stop digestion and were further dissociated into individual cells by trituration and plated on poly-D-lysine-coated glass coverslips in culture dishes at a density of 7×10^5 cells/ml. After the neurons had attached to the coverslips for 2 hrs, the medium was changed to neurobasal medium containing 2% B27 supplement. Neurons were incubated at 37°C in a humidified atmosphere of 5% CO2 for 7–8 days before electrophysiological experiments.
# After 7 days-in-vitro, cortical neurons were treated with the specific inhibitor for 15 min prior to the addition of 100 µM glutamate or 200 µM NMDA at 37°C. The plates were then incubated for up to 24 h at 37°C in the presence or absence of inhibitors. Untreated cells were also included as controls. At the end of the treatment period, cells were either fixed for staining or subjected to a neuronal viability assay using Alamar Blue (Invitrogen). Stained cells were examined under a fluorescent microscope (Carl Zeiss, AX10 vert 200M), and digital images were taken and analyzed using Image J software (http://rsbweb.nih.gov/ij/). The viability of cortical neurons treated with NMDA, and with or without inhibitors as mentioned, was assayed using an Alamar Blue assay (Invitrogen). Briefly, a 1∶10 dilution of Alamar blue was added to cells for 1 h at 37°C. One third of the medium was removed and read in a 96-well plate using a plate reader with λEx = 530 nm and λEm = 590 nm. At minimum, a triplicate reading was obtained per experiment with three independent repeats.
# NMDA receptors = test: Whole-cell patch-clamp recording of NMDA-activated current in cultured cortical neurons; type: cell-based, rat; conditions: for EC50: n = 6–8
# Method: as §1
# Whole-cell patch-clamp recordings were carried out at room temperature (22–25°C) using an Axopatch 700A patch-clamp amplifier (Axon Instruments, Inverurie, Scotland). Data acquisition was achieved using a DigiData 1322A with pClamp 9.0 software. The acquisition rate was 10 kHz and signals were filtered at 5 kHz. Patch electrodes were pulled with a Flaming/Brown micropipette puller (Sutter Instruments, Novato, CA) and fire-polished. […] For the voltage-clamp recordings, the capacity transients were cancelled using the resistance capacitance circuit within the amplifier. After the formation of whole-cell configuration, access resistances were generally <15 MΩ. Series resistance compensation was set to 70%–90%. The liquid junction potential was approximately 2 mV and was auto-adjusted each time by pipette offset. To record NMDA/AMPA-activated currents, the external solution [(containing (mM): NaCl 150, KCl 5, CaCl2 0.2, glucose 10 and HEPES 10, pH adjusted to 7.4 with NaOH)] and the pipette solution [containing (mM): KCl 140, MgCl2 2.5, HEPES 10, EGTA 11, ATP 5, pH adjusted to 7.3 with KOH] were used. For voltage-clamp recordings, the membrane potential was held at −70 mV, unless noted otherwise. Drug solutions were prepared in extracellular solutions and applied to neurons by pressure using the 8-Channel Focal Perfusion System (ALA Scientific Instruments, Farmingdale, NY). Neurons were bathed constantly in extracellular solution between drug applications. Drug solution exchange was accomplished by electronic control.
# Patch-clamp data was processed using Clampfit 9.0 (Axon Instruments) and then analyzed in Origin 7.5 (OriginLab, Northampton, MA). The dose-response curve was fitted to the logistic equation: y = (A1–A2)/[1+ (x/x0 )^p]+A2, where y is the response, A1 and A2 are the maximum and minimum response, respectively, x0 is the concentration corresponding to half-maximal effect, x is the drug concentration, and p is the Hill coefficient.
# The onset and offset rates of 2-BFI were measured from the recordings by the binding kinetic protocol, where a single concentration of 2-BFI was applied in the constant presence of agonists. Tauon and Tauoff were obtained by a single exponential function fit: I = A×[1-exp(-t/τ)]+I 0, where I is the current, I 0 is the steady-state amplitude of the current, A is the difference between the peak and steady state current amplitudes, t is time, and τ is the time constant.
# [3] = system: transient cerebral ischemia; set-up: method as in PMID 19508825, PMID 20840843, PMID 22771326; conditions: rodent model of stroke; cited from earlier work
# [4] = set-up: method as in PMID 9228188; conditions: cited from earlier work
# NMDAR = conditions: read-out: IC50 of memantine; at −70 mV; ref not given; cited from earlier work
# rat cortical neurons = test: Effect of 2-BFI alone on neuronal excitability (current and membrane potential); type: cell-based; conditions: 3–1000 µM 2-BFI
# Method: as §1
# (§2) Whole-cell patch-clamp recordings were carried out at room temperature (22–25°C) using an Axopatch 700A patch-clamp amplifier (Axon Instruments, Inverurie, Scotland). Data acquisition was achieved using a DigiData 1322A with pClamp 9.0 software. The acquisition rate was 10 kHz and signals were filtered at 5 kHz. Patch electrodes were pulled with a Flaming/Brown micropipette puller (Sutter Instruments, Novato, CA) and fire-polished. […]
# [5] = biological target: [3H]2-BFI binding sites (I2-imidazoline receptors); set-up: method as in PMID 9228188; conditions: cerebral cortex; read-out: Ki for a single class of [3H]2-BFI binding sites; cited from earlier work
# AMPA receptor = test: Whole-cell patch-clamp recording of AMPA-activated current in cultured cortical neurons; type: cell-based, rat; conditions: 200 µM 2-BFI; 100 µM AMPA; paired t-test P>0.05, n = 8
# Method: as §1, §2
# rodents = system: rodents; set-up: method as in PMID 19508825, PMID 20840843, PMID 22771326, PMID 19083996, PMID 21303658; conditions: previous animal studies; cited from earlier work
smiles,measurement,setting,value
C[C@]12N[C@H](Cc3ccccc31)c1ccccc12 [MK801],reversibility of block of NMDA receptor-mediated [Ca2+]i influx on removal of inhibitor,[1],non-reversibly blocked
same,level of spectrin breakdown product (SBP),[2],effectively reduced
same,number of condensed nuclei (NMDA-induced neuronal death),cortical neurons,reduced
NCC(=O)O [glycine],slope factor of glycine concentration-response curve,"NMDA receptors; in the absence of 2-BFI, 30 µM NMDA",0.39±0.2
same,EC50,"NMDA receptors; in the absence of 2-BFI, 30 µM NMDA, read-out: EC50 of glycine for current activation",1.52 ± 1.6 µM
same,slope factor of glycine concentration-response curve,"NMDA receptors; in the presence of 200 µM 2-BFI, 30 µM NMDA",0.58±0.6
c1ccc2c(c1)OCC(C1=NCCN1)O2 (stereo not shown) [Idazoxan],neuroprotection against transient cerebral ischemia,[3],potently and dose-dependently neuroprotective
same,crossing of the blood brain barrier,[4],readily cross the blood brain barrier
"CN[C@H](CC(=O)O)C(=O)O [NMDA, N-methyl-D-aspartic acid]",slope factor of NMDA concentration-response curve,"NMDA receptors; in the absence of 2-BFI, 1 µM glycine",1.25±0.1
same,EC50,"NMDA receptors; in the absence of 2-BFI, 1 µM glycine, read-out: EC50 of NMDA for current activation",33.7 ± 4.3 µM
same,slope factor of NMDA concentration-response curve,"NMDA receptors; in the presence of 200 µM 2-BFI, 1 µM glycine",1.25±0.6
CC12CC3CC(C)(C1)CC(N)(C3)C2 [memantine],reversibility of block of NMDA receptor-mediated [Ca2+]i influx on removal of inhibitor,[1],able to respond to NMDA (100 µM) almost immediately
same,IC50,NMDAR,1.2 µM
same,level of spectrin breakdown product (SBP),[2],effectively reduced
same,number of condensed nuclei (NMDA-induced neuronal death),cortical neurons,reduced
"c1ccc2oc(C3=NCCN3)cc2c1 [2-BFI, 2-(2-benzofu-ranyl)-2-imidazoline]",effect of 2-BFI alone on membrane potential,rat cortical neurons,nor affected the membrane potential
same,current induced by 2-BFI alone,rat cortical neurons; −50 mV,neither induced any detectable current
same,neuroprotection against transient cerebral ischemia,[3],potently and dose-dependently neuroprotective
same,Ki,[5],0.0098 µM
same,average reversal potential of current activated by NMDA and glycine,"NMDA receptors; 30 µM NMDA and 1 µM glycine in the presence of 200 µM 2-BFI, n = 6",2.8±3.2 mV
same,IC50,"NMDA receptors; 30 µM NMDA plus 1 µM glycine, 2-BFI 10–2000 µM pre-applied 30 s, −70 mV, n = 6, read-out: IC50 for inhibition of NMDA-activated current",124 ± 13.1 µM
same,slope factor of the concentration-response curve for inhibition of NMDA-activated current,"NMDA receptors; 30 µM NMDA plus 1 µM glycine, −70 mV, n = 6",1.2±0.1
same,effect on Emax of NMDA and glycine,NMDA receptors; 200 µM 2-BFI,greatly reduced
same,inhibition of NMDA-induced currents,"NMDA receptors; 200 µM 2-BFI, 30 µM NMDA plus 1 µM glycine, paired t-test P<0.001, n = 8",marked inhibition
same,voltage dependence of average inhibition of NMDA-activated current,"NMDA receptors; 200 µM 2-BFI, membrane potentials from −60 mV to +60 mV, ANOVA P>0.05, n = 6",not significantly different
same,mode of NMDAR antagonism,NMDA receptors; EC50s and slope factors of NMDA and glycine unchanged by 200 µM 2-BFI,non-competitive antagonist
same,reversibility of inhibition of NMDA-activated current,NMDA receptors; after a few seconds of washing,fully reversible
same,Kd,"NMDA receptors; from fitted kinetic values, read-out: Kd = Koff/Kon",305.94 ± 0.3 µM
same,Koff,"NMDA receptors; kinetic protocol, constant presence of 30 µM NMDA plus 1 µM glycine, single exponential fit",0.67 ± 0.02 s⁻¹
same,effect on NMDA-evoked [Ca2+]i influx,"[1]; 10–1000 µM 2-BFI, 100 µM NMDA, n = 20 cells per dose point",significantly suppressed
same,reversibility of block of NMDA receptor-mediated [Ca2+]i influx on removal of inhibitor,[1],able to respond to NMDA (100 µM) almost immediately
same,inhibition of AMPA-induced currents,AMPA receptor,did not inhibit
same,side effects of administration to rodents,rodents,no visible side effects
same,crossing of the blood brain barrier,[4],able to cross the blood brain barrier
same,level of spectrin breakdown product (SBP),[2],effectively reduced
same,"protection against NMDA toxicity, Alamar blue assay","cortical neurons; dose- and time-course, paired t-test P<0.01, n = 8",Dose-dependent neuroprotection
same,number of condensed nuclei (NMDA-induced neuronal death),cortical neurons,reduced
